# Reference: PubChem BioAssay AID608 (Sanford-Burnham Center for Chemical Genomics, 2007)
# Where “and” joins values, the source holds several entries; their conditions need not be identical. Equal values may be shown once. Calls of active or inactive are those of the source. How the calls were made is not given here.
# Biological target: Peptidyl-prolyl cis-trans isomerase FKBP1A (Homo sapiens) (UniProt P62942)
# Assay: FKBP12 binders, biophysical, NMR detection (AID 608)
# Settings: NMR binding, purified FKBP12
# Chain of Peptidyl-prolyl cis-trans isomerase FKBP1A (Homo sapiens) (P62942 whole entry, looked up): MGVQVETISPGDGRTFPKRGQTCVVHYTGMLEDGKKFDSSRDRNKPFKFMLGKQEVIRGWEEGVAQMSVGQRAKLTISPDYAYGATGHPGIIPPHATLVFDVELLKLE
row,SMILES,Kd
1,CC1(C)C2C[C@@H](O)[C@]3(C)C(CC[C@@]4(C)[C@H](c5ccoc5)OC(=O)[C@H]5O[C@]543)[C@@]2(C)[C@@H](O)C[C@H]1O (some centres undefined),> 4 mM (inactive)
2,Cc1cc(C)n(CC(=O)NC2CCCCC2)n1,> 4 mM (inactive)
3,COc1ccc(N2C(=O)CCC2=O)c(OC)c1,> 4 mM (inactive)
4,CS(=O)(=O)N1CCN(C(=O)Cc2cccs2)CC1,> 4 mM (inactive)
5,Cc1[nH]c2ccccc2c1Cc1n[nH]c(=S)n1C,> 4 mM (inactive)
6,CCc1ccc2oc(-c3cc(N)cc(C)c3O)nc2c1,> 4 mM (inactive)
7,O=C1C[C@@H](c2ccc(O)cc2)Oc2cc(O)cc(O)c21,> 4 mM (inactive)
8,CSc1nc(C)c(Oc2ccccc2)c(=O)n1C,> 4 mM (inactive)
9,Cn1c2ccccc2n2c(=S)[nH]nc12,> 4 mM (inactive)
10,Cc1nn(CC(=O)Nc2ccccc2)c(=O)c2ccccc12,> 4 mM (inactive)
11,NC(=O)c1c[nH]c2ccccc12,> 4 mM (inactive)
12,O=c1[nH]cc(NCc2ccccc2)c(=O)[nH]1,> 4 mM (inactive)
13,c1ccc(CCc2nc(-c3cccnc3)no2)cc1,> 4 mM (inactive)
14,OCc1ccc(Oc2ccccc2)nc1,> 4 mM (inactive)
15,Cc1occc1C(=O)Nc1cc(C(C)(C)C)on1,> 4 mM (inactive)
16,NC(=O)CSc1ccc(-c2ccccc2)nn1,> 4 mM (inactive)
17,NC(=O)c1ccc(N2C(=O)CCC2=O)cc1Cl,> 4 mM (inactive)
18,CS(=O)(=O)Nc1ccc(C(=O)N2CCCCC2)cc1,> 4 mM (inactive)
19,Cc1ccc(-c2nn3c(C)nnc3s2)cc1N,> 4 mM (inactive)
20,CNC(=O)C1COc2ccccc2O1 (centres undefined),> 4 mM (inactive)
21,CN(C)c1nc(N2CCOCC2)c2cnn(C)c2n1,> 4 mM (inactive)
22,CC(C)(C)CC(=O)NC1=NCCS1,> 4 mM (inactive)
23,O=C(c1ccccc1)c1cncc(Br)c1,> 4 mM (inactive)

row,SMILES,Kd
1,CC(=O)c1c(C)nc(-c2cccs2)n1O,> 4 mM (inactive)
2,CCCCCCCCCCCC1=C(O)C(=O)C=C(O)C1=O,> 4 mM (inactive)
3,Cn1nnc2cc(C(=O)NC3=NCCS3)ccc21,> 4 mM (inactive)
4,Cc1ccc(C)n1/N=C1\NC(=O)CS1,> 4 mM (inactive)
5,O=C(O)c1cc(F)cc2c1OCOC2,> 4 mM (inactive)
6,O=C(NN1C(=O)c2ccccc2C1=O)c1cccs1,> 4 mM (inactive)
7,N#CCCn1ccnc1-c1ccccc1,> 4 mM (inactive)
8,Cc1nc(SCC(=O)c2c[nH]c3ccccc23)n[nH]1,inactive
9,COc1ccc2nc(N)sc2c1,> 4 mM (inactive)
10,CSc1nc2cc(F)c(F)cc2n1C,> 4 mM (inactive)
11,Cc1ccc2[nH]c3nc(=S)[nH]nc3c2c1,> 4 mM (inactive)
12,Cn1[nH]c2nc3[nH]n(C)c(=O)c3c(-c3ccccc3)c2c1=O,> 4 mM (inactive)
13,CC1(C)C=Cc2c(cc3occ(-c4ccc5c(c4)OCO5)c(=O)c3c2O)O1,> 4 mM (inactive)
14,Cc1cc(=O)cc(C)n1-c1ccccc1N1CCOCC1,> 4 mM (inactive)
15,Cc1cc(C(F)(F)F)n2nc(C(=O)O)c(Cl)c2n1,> 4 mM (inactive)
16,CSc1ccc(S(=O)(=O)N2CCCC2)cc1,> 4 mM (inactive)
17,NC(=O)c1ccc(NC(=O)c2ccco2)cc1,> 4 mM (inactive)
18,CC(=O)NC(=S)Nc1ccc(C(C)=O)cc1,> 4 mM (inactive)
19,O=C1C2CC=CCC2C(=O)N1c1ccccc1 (centres undefined),0.0261 mM
20,COCc1nn2c(N)c(C#N)cnc2c1-c1ccccc1,> 4 mM (inactive)
21,COc1ccc2c(c1)OC/C(=C\c1ccc(OC)c(O)c1)C2=O,> 4 mM (inactive)
22,CC(=O)Nc1ccc(S(N)(=O)=O)cc1,> 4 mM (inactive)
23,CN1C(=O)c2ccc(N=C3NC(=O)CS3)cc2C1=O,> 4 mM (inactive)

row,SMILES,Kd
1,Cc1ccc(-c2nc(-c3cccnc3)no2)cc1,> 4 mM (inactive)
2,COC(=O)C[C@H]1C(C)(C)C(=O)[C@@H]2CC3C4=CC(=O)O[C@@H](c5ccoc5)[C@]4(C)CCC3C1(C)C2=O (some centres undefined),> 4 mM (inactive)
3,Cc1ccccc1N1CCN(C(=O)C2CCCCC2)CC1,> 4 mM (inactive)
4,O/N=C1/CCCc2nonc21,> 4 mM (inactive)
5,Nc1ccc(S(=O)(=O)N2CCOCC2)cc1,> 4 mM (inactive)
6,CCCCCC1C(=O)CCC1CC(=O)OC (centres undefined),> 4 mM (inactive)
7,N#Cc1nc(-c2ccccc2Cl)oc1N1CCOCC1,> 4 mM (inactive)
8,CCOC(=O)Cn1cnc2sc3c(c2c1=O)CCC3,> 4 mM (inactive)
9,CC(C)c1c(O)ccc2c1CCC1[C@@](C)(CO)CCC[C@]21C (some centres undefined),> 4 mM (inactive)
10,O=C(O)C1Cc2ccccc2O1 (centres undefined),> 4 mM (inactive)
11,O=C(CSc1ccc(Cl)cc1)N1CCOCC1,0.014 mM and 0.019 mM
12,NC(=O)c1cc(N)ccc1N1CCCCC1,> 4 mM (inactive)
13,COC(=O)c1c(SC)nc(-c2ccccc2)[nH]c1=O,> 4 mM (inactive)
14,CC1(C)C2CC(=O)[C@]3(C)C(CC[C@@]4(C)[C@H](c5ccoc5)OC(=O)[C@H]5O[C@]543)[C@@]2(C)C=C[C@@H]1O (some centres undefined),> 4 mM (inactive)
15,NCc1ccc2c(c1)OCO2,> 4 mM (inactive)
16,O=C(O)CCN1CCc2ccccc2C1c1ccncc1 (centres undefined),> 4 mM (inactive)
17,CSc1n[nH]c(NCc2cccs2)n1,> 4 mM (inactive)
18,O=C(COc1cc(Cl)c(Cl)cc1Cl)N1CCOCC1,inactive
19,CC(=O)Nc1ccc(C(=O)NC2CCSC2=O)cc1 (centres undefined),> 4 mM (inactive)
20,COc1cc(O)c(C(C)=O)c(OC)c1,> 4 mM (inactive)
21,Cn1ncc(CO)c1-c1ccccc1,> 4 mM (inactive)
22,Cn1nc(C(=O)N2CCCC2)c2ccccc2c1=O,> 4 mM (inactive)
23,O=C1CCC(C(=O)NCc2cccnc2)N1 (centres undefined),> 4 mM (inactive)

row,SMILES,Kd
1,CCOC(=O)Cn1cnc2c1c(=O)[nH]c(=O)n2C,> 4 mM (inactive)
2,O=C(O)c1c[nH]c2ccccc12,> 4 mM (inactive)
3,Nc1ncc2[nH]cnc2n1,> 4 mM (inactive)
4,CC(=O)Nc1ccc(N2CCOCC2)cc1,> 4 mM (inactive)
5,CCOC(=O)Nc1ccc2c(C)cc(=O)oc2c1,> 4 mM (inactive)
6,CS(=O)(=O)Nc1cc2c3c(c1)CCN3C(=O)CC2,> 4 mM (inactive)
7,Nc1cccc(-n2cccc2)c1,> 4 mM (inactive)
8,O=C1NC(=Nc2ccccc2Cl)SC1(CO)CO,> 4 mM (inactive)
9,CC(=O)c1ccc(NC(=S)N2CCC(O)CC2)cc1,> 4 mM (inactive)
10,C=CC(C1=CC(=O)C(OC)=CC1=O)c1ccc(O)cc1 (centres undefined),> 4 mM (inactive)
11,Cc1ccnc(NS(=O)(=O)c2cccs2)c1,> 4 mM (inactive)
12,O=C(NC(=S)NCc1cccnc1)c1ccco1,> 4 mM (inactive)
13,CC(=O)Nc1sccc1C(=O)NC(N)=O,> 4 mM (inactive)
14,Cc1ccc2nc(SCC(=O)O)nc(C)c2c1,> 4 mM (inactive)
15,c1cncc(-c2nnc(-c3cccnc3)nn2)c1,> 4 mM (inactive)
16,CC(C)=CCCC1(C)C=Cc2c(O)c3c(c(CC=C(C)C)c2O1)OC12C(=CC4CC1C(C)(C)OC2(C/C=C(/C)C(=O)O)C4O)C3=O (centres undefined),> 4 mM (inactive)
17,Cn1ncc(SCc2ccco2)c(Cl)c1=O,> 4 mM (inactive)
18,COc1ccc(C(=O)NCC(=O)O)cc1,> 4 mM (inactive)
19,O=C1CCCc2c1nc(-c1ccccc1)n2O,> 4 mM (inactive)
20,CC(C)(C)Cc1nc(-c2ccccn2)no1,> 4 mM (inactive)
21,Cc1nnc(SCc2ccc(F)cc2)s1,> 4 mM (inactive)
22,CCCc1cc2c(c(NC(C)=O)n1)c(=O)oc1ccccc12,> 4 mM (inactive)
23,COC(=O)C[C@H]1C2(C)CC34OC5(C)O[C@@]6([C@H](OC)C(OC(=O)C(C)C)[C@]7(C)C(/C(=C(/OC)C(C)C)C(=O)O[C@H]7c7ccoc7)[C@@]6(O5)[C@H](OC)[C@@]3(OC)C2OC(C)=O)[C@]14C (some centres undefined),> 4 mM (inactive)

row,SMILES,Kd
1,Cc1cc(Cl)ccc1NC(=O)C(N)=O,> 4 mM (inactive)
2,O=C1NC(=S)N/C1=C\c1ccccc1F,> 4 mM (inactive)
3,O=c1c[n+]([O-])c2ccccc2n1OCc1ccccc1,> 4 mM (inactive)
4,O=c1[nH]cc(COCc2ccccc2)c(=O)[nH]1,> 4 mM (inactive)
5,CC1(C)C2CC[C@]3(C)C(C(=O)C=C4[C@@H]5C[C@@](C)(C(=O)O)CC[C@]5(C)CC[C@]43C)[C@@]2(C)CC[C@@H]1O (some centres undefined),> 4 mM (inactive)
6,CNC(=O)n1ccc(C(=O)N2CCCCC2)n1,> 4 mM (inactive)
7,C/C=C(\C)C(=O)O[C@@H]1c2c(ccc3ccc(=O)oc23)OC(C)(C)[C@@H]1OC(C)=O,> 4 mM (inactive)
8,CC1(C)Cc2c(c(-c3ccco3)[nH]c(=O)c2C#N)CO1,> 4 mM (inactive)
9,Cn1ccc(NC(=S)Nc2cccc([N+](=O)[O-])c2)n1,> 4 mM (inactive)
10,OCc1cccc2c1OCO2,> 4 mM (inactive)
11,CSc1ccccc1NC(=O)c1cccnc1,> 4 mM (inactive)
12,C=C[C@@]1(C)CC(=O)[C@@]2(O)[C@](C)(O1)[C@@H](OC(C)=O)[C@@H](O)C1C(C)(C)CC[C@H](O)[C@@]12C (some centres undefined),> 4 mM (inactive)
13,O=C(O)c1cccc(-n2cccc2)c1,> 4 mM (inactive)
14,COC(=O)[C@@H]1OC(=O)C2OC23[C@@]1(C)CCC1[C@@]2(C)CCC(=O)C(C)(C)C2C[C@@H](OC(C)=O)[C@]13C (some centres undefined),> 4 mM (inactive)
15,CCc1c(C(=O)N2CCOCC2)csc1C,> 4 mM (inactive)
16,Nc1ccc(Oc2ccccc2)nc1,> 4 mM (inactive)
17,O=C(Nc1cccnc1)c1cccs1,> 4 mM (inactive)
18,O=C1CCNc2cc3ccccc3cc21,> 4 mM (inactive)
19,Cc1cc(SCCF)n2ncnc2n1,> 4 mM (inactive)
20,C/C=C(\C)C(=O)O[C@H]1C[C@@H](OC(C)=O)[C@@]2(C(=O)OC)CO[C@@H]3C2[C@]12CO[C@](O)(C(=O)OC)[C@H]2[C@](C)(C12O[C@@]1(C)[C@H]1C[C@@H]2OC2OC=C[C@@]21O)[C@@H]3O (some centres undefined),> 4 mM (inactive)
21,O=C(NC1CSCC1O)c1ccccc1 (centres undefined),> 4 mM (inactive)
22,OC1CNCc2cc3c(cc21)OCCO3 (centres undefined),> 4 mM (inactive)
